Measured values reported in the supplement of paper PMC10307832.

Columns and labels:
Test in all cases: relative viability (nuclei count vs DMSO), 5 days (fraction); higher = more cells survive
Bexarotene + Pictilisib = compound: C=C(c1ccc(C(=O)O)cc1)c1cc2c(cc1C)C(C)(C)CCC2(C)C [Bexarotene] + CS(=O)(=O)N1CCN(Cc2cc3nc(-c4cccc5[nH]ncc45)nc(N4CCOCC4)c3s2)CC1 [Pictilisib] (partner 1 µM)
Procedure, shortened: (§1)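 A single step with final 0.05% Triton X-100, 1% formaldehyde and 1 ug/ml Hoechst fixed the cells and stained nuclei 5 days after treatment. Lung cancer cell lines in 1536-well plates had been treated by pin tool the day after seeding with one drug alone or a fixed anchor-drug dose plus five library-drug doses (not always all listed) in √10 steps, and nuclei were counted on 4× images. Relative viability is the ratio of nuclei in treated wells to nuclei in vehicle wells, taken as the median of duplicate plates.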

Bexarotene + Palbociclib = compound: C=C(c1ccc(C(=O)O)cc1)c1cc2c(cc1C)C(C)(C)CCC2(C)C [Bexarotene] + CC(=O)c1c(C)c2cnc(Nc3ccc(N4CCNCC4)cn3)nc2n(C2CCCC2)c1=O [Palbociclib] (partner 0.5 µM)
Procedure, shortened: as §1

Bexarotene + OSI-027 = compound: C=C(c1ccc(C(=O)O)cc1)c1cc2c(cc1C)C(C)(C)CCC2(C)C [Bexarotene] + COc1cccc2cc(-c3nc([C@H]4CC[C@H](C(=O)O)CC4)n4ncnc(N)c34)[nH]c12 [OSI-027] (partner 0.5 µM)
Procedure, shortened: as §1

Bexarotene + Luminespib = compound: C=C(c1ccc(C(=O)O)cc1)c1cc2c(cc1C)C(C)(C)CCC2(C)C [Bexarotene] + CCNC(=O)c1noc(-c2cc(C(C)C)c(O)cc2O)c1-c1ccc(CN2CCOCC2)cc1 [Luminespib] (partner 0.01 µM)
Procedure, shortened: as §1

Row | Cell Line | relative viability (Bexarotene + Pictilisib; first compound 0.08 µM) | relative viability (Bexarotene + Pictilisib; first compound 0.253 µM) | relative viability (Bexarotene + Pictilisib; first compound 0.8 µM) | relative viability (Bexarotene + Pictilisib; first compound 2.53 µM) | relative viability (Bexarotene + Pictilisib; first compound 8 µM) | relative viability (Bexarotene + Palbociclib; first compound 0.08 µM) | relative viability (Bexarotene + Palbociclib; first compound 0.253 µM) | relative viability (Bexarotene + Palbociclib; first compound 0.8 µM) | relative viability (Bexarotene + Palbociclib; first compound 2.53 µM) | relative viability (Bexarotene + Palbociclib; first compound 8 µM) | relative viability (Bexarotene + OSI-027; first compound 0.08 µM) | relative viability (Bexarotene + OSI-027; first compound 0.253 µM) | relative viability (Bexarotene + OSI-027; first compound 0.8 µM) | relative viability (Bexarotene + OSI-027; first compound 2.53 µM) | relative viability (Bexarotene + OSI-027; first compound 8 µM) | relative viability (Bexarotene + Luminespib; first compound 0.08 µM) | relative viability (Bexarotene + Luminespib; first compound 0.253 µM) | relative viability (Bexarotene + Luminespib; first compound 0.8 µM) | relative viability (Bexarotene + Luminespib; first compound 2.53 µM) | relative viability (Bexarotene + Luminespib; first compound 8 µM)
1 | NCI-H1395 | 0.678 | 0.603 | 0.571 | 0.807 | 0.762 | 0.583 | 0.638 | 0.615 | 0.618 | 0.618 | 0.672 | 0.653 | 0.616 | 0.624 | 0.633 | 0.806 | 0.631 | 0.687 | 0.663 | 0.749
2 | HCC-827 | 1.07 | 1.08 | 0.888 | 1.02 | 0.971 | 0.508 | 0.497 | 0.466 | 0.482 | 0.497 | 0.843 | 0.739 | 0.715 | 0.867 | 0.74 | 0.525 | 0.78 | 0.655 | 0.808 | 0.473
3 | ChaGo-K-1 | 0.902 | 0.679 | 0.875 | – | 0.801 | 1.09 | 0.983 | 0.99 | 0.967 | 1.01 | 0.651 | 0.676 | 0.715 | 0.545 | 0.611 | 0.54 | 0.604 | 0.6 | 0.686 | 0.693
4 | NCI-H2228 | 0.476 | 0.572 | 0.358 | 0.454 | 0.336 | 0.968 | 0.603 | 0.707 | 0.702 | 0.699 | 0.848 | 0.639 | 0.359 | 0.568 | 0.477 | 0.186 | 0.121 | 0.145 | 0.145 | 0.132
5 | NCI-H2170 | 0.352 | 0.307 | 0.302 | 0.271 | 0.268 | 0.343 | 0.403 | 0.324 | 0.325 | 0.331 | 0.699 | 0.757 | 0.636 | 0.683 | 0.604 | 0.835 | 0.697 | 0.721 | 0.464 | 0.695
6 | EMC-BAC-2 | 0.618 | 0.561 | 0.52 | 0.554 | 0.469 | 0.538 | 0.529 | 0.508 | – | 0.502 | 0.416 | 0.42 | 0.385 | 0.367 | 0.419 | 1.28 | 1.23 | 1.23 | 1.12 | 1.11
7 | NCI-H23 | 0.623 | 0.489 | 0.44 | 0.516 | 0.52 | 0.554 | 0.567 | 0.571 | 0.555 | 0.543 | 0.607 | 0.597 | 0.6 | 0.55 | 0.461 | 0.229 | 0.201 | 0.238 | 0.234 | 0.204
8 | RERF-LC-KJ | 0.492 | 0.592 | 0.503 | 0.387 | 0.57 | 1.07 | 1.02 | 0.817 | 0.999 | 0.922 | 0.522 | 0.572 | 0.539 | 0.562 | 0.506 | 1.17 | 1.23 | 1.1 | 1.1 | 1.07
9 | NCI-H358 | 0.377 | 0.364 | 0.376 | 0.435 | 0.351 | 0.129 | 0.138 | 0.154 | 0.124 | 0.138 | 0.764 | 0.774 | 0.685 | 0.798 | 0.633 | 0.136 | 0.306 | 0.325 | 0.244 | 0.121
10 | LC-2-ad | 0.809 | 0.473 | 0.433 | 0.503 | 0.381 | 0.427 | 0.5 | 0.473 | 0.434 | 0.46 | 0.894 | 0.944 | 0.779 | 0.8 | 0.881 | 1.01 | 0.978 | 1.04 | 1 | 1.1
11 | HCC-15 | 0.798 | 0.743 | 0.656 | 0.644 | 0.632 | 0.779 | 0.925 | 0.753 | 0.794 | 0.726 | 0.792 | 0.806 | 0.631 | 0.621 | 0.632 | 0.192 | 0.314 | 0.321 | 0.353 | 0.231
12 | NCI-H2405 | 0.58 | 0.455 | 0.326 | 0.538 | 0.523 | 0.541 | 0.557 | 0.44 | 0.565 | 0.508 | 0.675 | 0.674 | 0.512 | 0.708 | 0.65 | 0.775 | 0.663 | 0.539 | 0.703 | 0.625
13 | LXF-289 | 0.798 | 0.68 | 0.711 | 0.581 | 0.604 | 0.636 | 0.63 | 0.605 | 0.593 | 0.639 | 0.912 | 0.925 | 0.757 | 0.572 | 0.731 | 0.8 | 0.824 | 0.798 | 0.874 | 0.8
14 | CAL-12T | 0.333 | – | 0.396 | – | 0.361 | 0.442 | 0.465 | 0.342 | 0.417 | 0.441 | 0.523 | 0.416 | 0.49 | 0.439 | 0.441 | 0.218 | 0.224 | 0.419 | 0.322 | 0.297
